Test results from US20230091225A1, “Bifunctional chimeric heterocyclic compounds for targeted degradation of androgen receptors and use thereof” (HINOVA PHARMACEUTICALS INC., priority 2019, published 2023).
Like-named read-outs stand apart in the source and are kept apart here. Blank lines part the entries; values can stand above or below the molecule they belong to.

Target: T1, androgen receptor (AR) (Homo sapiens, UniProt P10275)
T1 sequence (P10275 1-920): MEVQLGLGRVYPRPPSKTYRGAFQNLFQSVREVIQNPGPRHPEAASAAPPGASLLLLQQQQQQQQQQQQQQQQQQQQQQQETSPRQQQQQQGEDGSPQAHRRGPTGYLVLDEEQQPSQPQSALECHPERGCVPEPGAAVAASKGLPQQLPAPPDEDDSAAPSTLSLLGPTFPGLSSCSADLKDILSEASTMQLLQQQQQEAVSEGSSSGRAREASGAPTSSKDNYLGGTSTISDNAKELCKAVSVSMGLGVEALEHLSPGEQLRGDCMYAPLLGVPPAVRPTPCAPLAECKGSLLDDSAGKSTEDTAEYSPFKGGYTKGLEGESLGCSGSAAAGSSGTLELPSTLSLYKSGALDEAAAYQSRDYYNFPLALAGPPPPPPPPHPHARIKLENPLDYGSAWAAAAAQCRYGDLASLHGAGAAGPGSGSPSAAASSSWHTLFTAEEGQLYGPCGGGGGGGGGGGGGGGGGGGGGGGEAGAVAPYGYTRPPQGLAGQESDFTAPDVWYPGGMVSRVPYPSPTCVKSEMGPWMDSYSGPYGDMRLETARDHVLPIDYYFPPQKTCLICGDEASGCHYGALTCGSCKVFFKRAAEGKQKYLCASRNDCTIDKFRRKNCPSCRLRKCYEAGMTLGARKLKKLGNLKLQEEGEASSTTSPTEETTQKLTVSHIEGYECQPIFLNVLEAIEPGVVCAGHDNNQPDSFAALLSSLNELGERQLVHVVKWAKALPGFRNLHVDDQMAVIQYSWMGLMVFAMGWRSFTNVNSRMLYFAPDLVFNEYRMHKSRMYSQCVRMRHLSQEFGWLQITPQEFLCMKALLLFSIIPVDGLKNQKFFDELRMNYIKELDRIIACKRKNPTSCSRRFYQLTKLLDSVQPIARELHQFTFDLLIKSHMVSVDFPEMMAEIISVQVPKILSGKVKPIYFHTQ
Assay: Degradation of androgen receptor (AR) protein in VCaP cells by ELISA
Format: cell-based
Conditions: for Dmax: VCaP

[1] = AR degradation, VCaP cells, 16 h, ELISA, Table 3-1, read-out: DC50
[2] = AR degradation, VCaP cells, 16 h, ELISA, Table 3-1, read-out: Dmax (%)
[3] = AR degradation, VCaP cells, 16 h, ELISA, Table 3-2, read-out: DC50
[4] = AR degradation, VCaP cells, 16 h, ELISA, Table 3-2, read-out: Dmax (%)

SMILES: N#Cc1ccc(O[C@H]2CC[C@H](NC(=O)c3cnc(N4CCC(CN5CCC6(CC5)CN(c5ccc7c(c5)C(=O)N(C5CCC(=O)NC5=O)C7=O)C6)CC4)nn3)CC2)cc1Br (stereo partly shown) [Compound 419]
Dmax (%): ++++ (key: A: >80%; B: 79%-50%; C: 49%-25%; D: <25%)
DC50 (read-out: DC50): < 10 nM

SMILES: CC1(C)[C@H](Oc2ccc(C#N)c(Cl)c2)C(C)(C)[C@H]1N1Cc2nc(C#CC3CC(N4CC5CN(c6ccc7c(c6)C(=O)N(C6CCC(=O)NC6=O)C7=O)CC5C4)C3)ccc2C1=O (stereo partly shown) [Compound 359, 2-Chloro-4-((1r,3r)-3-(2-((3-(5-(2-(2,6-dioxopiperidin-3-yl)-1,3-dioxoisoindolin-5-yl)hexahydropyrrolo[3,4-c]pyrrol-2(1H)-yl)cyclobutyl)ethynyl)-5-oxo-5,7-dihydro-6H-pyrrolo[3,4-b]pyridin-6-yl)-2,2,4,4-tetramethylcyclobutoxy)benzonitrile]
DC50 [1]: 10 to 100 nM

SMILES: CC1(C)[C@H](Oc2ccc(C#N)c(Cl)c2)C(C)(C)[C@H]1N1Cc2nc(C#CC3CCC(N4CC5(CCN(c6ccc7c(c6)C(=O)N(C6CCC(=O)NC6=O)C7=O)CC5)C4)CC3)ccc2C1=O (stereo partly shown) [Compound 377, 2-Chloro-4-((1r,3r)-3-(2-((4-(7-(2-(2,6-dioxopiperidin-3-yl)-1,3-dioxoisoindolin-5-yl)-2,7-diazaspiro[3.5]nonan-2-yl)cyclohexyl)ethynyl)-5-oxo-5,7-dihydro-pyrrolo[3,4-b]pyridin-6-yl)-2,2,4,4-tetramethylcyclobutoxy) benzonitrile]
Dmax (%) (AR degradation, VCaP cells, 16 h, ELISA, Table 3-1): ++++ (>80%)
DC50 [1]: < 10 nM

SMILES: N#Cc1ccc(OC2CCC(NC(=O)c3cn(C4CCC(CN5CCC6(CC5)CN(c5cc7c(cc5F)C(=O)N(C5CCC(=O)NC5=O)C7=O)C6)CC4)cn3)CC2)cc1Cl [Compound 112, N-((1r,4R)-4-(3-chloro-4-cyanophenoxy)cyclohexyl)-1-((1r,4R)-4-((2-(2,6-dioxopiperidin-3-yl)-6-fluoro-1,3-dioxoisoindolin-5-yl)-2,7-diazaspiro[3.5]nonan-7-yl)methyl)cyclohexyl)-1H-imidazole-4-carboxamide]
Dmax (%): + (key: ++++: >80%; +++: 80%-60%; ++: 60%-40%; +: <40%)
DC50 (read-out: DC50): > 300 nM

SMILES: N#Cc1ccc(O[C@H]2CC[C@H](NC(=O)c3ncc(N4CC5(CCN(CC6CCN(c7cc8c(cc7F)C(=O)N(C7CCC(=O)NC7=O)C8=O)CC6)CC5)C4)cn3)CC2)cc1Cl (stereo partly shown) [Compound 150]
DC50 [1]: > 300 nM
Dmax: < 40%

SMILES: CC1(C)[C@H](Oc2ccc(C#N)c(Cl)c2)C(C)(C)[C@H]1N1Cc2nc(C#CC3CCC(N4CC5CC4CN5c4ccc5c(c4)C(=O)N(C4CCC(=O)NC4=O)C5=O)CC3)cnc2C1=O (stereo partly shown) [Compound 388, 2-Chloro-4-((1r,3r)-3-(2-((4-(5-(2-(2,6-dioxopiperidin-3-yl)-1,3-dioxoisoindolin-5-yl)-2,5-diazabicyclo[2.2.1]heptan-2-yl)cyclohexyl)ethynyl)-5-oxo-5,7-dihydro-pyrrolo[3,4-b]pyrazine-26-yl)-2,2,4,4-tetramethylcyclobutoxy) benzonitrile]
Dmax (%) (AR degradation, VCaP cells, 16 h, ELISA, Table 3-2): ++ (60%-40%)
DC50 [3]: 100 to 300 nM

SMILES: CC1(C)[C@H](Oc2ccc(C#N)c(Cl)c2)C(C)(C)[C@H]1N1Cc2nc(C#CC3CC(N4CC5CN(c6cc7c(cc6F)C(=O)N(C6CCC(=O)NC6=O)C7=O)CC5C4)C3)ccc2C1=O (stereo partly shown) [Compound 361, 2-Chloro-4-((1r,3r)-3-(2-((3-(5-(2,6-dioxopiperidin-3-yl)-6-fluoro-1,3-dioxoisoindolin-5-yl)hexahydropyrrolo[3,4-c]pyrrol-2(1H)-cyclobutyl)ethynyl)-5-oxo-5,7-dihydro-6H-pyrrolo[3,4-b]pyridin-6-yl)-2,2,4,4-tetramethylcyclobutoxy) benzonitrile]
DC50 [1]: 10 to 100 nM

SMILES: N#Cc1ccc(O[C@H]2CC[C@H](NC(=O)c3noc(N4CCC(CN5CCC6(CC5)CN(c5ccc7c(c5)C(=O)N(C5CCC(=O)NC5=O)C7=O)C6)CC4)n3)CC2)cc1Cl (stereo partly shown) [Compound 415]
DC50: < 10 nM
Dmax: > 80%

SMILES: N#Cc1ccc(O[C@H]2CC[C@H](NC(=O)c3ccc(N4CC5(CCN(CC6CCN(c7ccc8c(c7)C(=O)N(C7CCC(=O)NC7=O)C8=O)CC6)CC5)C4)nn3)CC2)cc1Cl (stereo partly shown) [Compound 282, N-((1r,4r)-4-(3-chloro-4-cyanophenoxy)cyclohexyl)-6-(7-((1-(2-(2,6-dioxopiperidin-3-yl)-1,3-dioxoisoindolin-5-yl)piperidine-4-yl)methyl)-2,7-diazaspiro[3.5]nonan-2-yl)pyridazine-3-formamide]
DC50 [1]: < 10 nM
Dmax [2]: > 80%

SMILES: N#Cc1ccc(O[C@H]2CC[C@H](NC(=O)c3ncc(N4CC5(CCN(C6CCN(c7ccc8c(c7)C(=O)N(C7CCC(=O)NC7=O)C8=O)CC6)CC5)C4)cn3)CC2)cc1Cl (stereo partly shown) [Compound 106, N-((1r,4r)-4-(3-chloro-4-cyanophenoxy)cyclohexyl)-5-(7-(1-(2-(2,6-dioxopiperidin-3-yl)-1,3-dioxoisoindolin-5-yl)piperidine-4-yl)-2,7-diazaspiro[3.5]nonan-2-yl)pyrimidine-2-carboxamide]
DC50 [3]: > 300 nM
Dmax: < 40%

SMILES: N#Cc1ccc(O[C@H]2CC[C@H](NC(=O)c3nnc(N4CCC(N5CCC6(CC5)CN(c5cc7c(cc5F)C(=O)N(C5CCC(=O)NC5=O)C7=O)C6)CC4)s3)CC2)cc1Cl (stereo partly shown) [Compound 83]
DC50 [1]: > 300 nM
Dmax: < 40%

SMILES: [2H]C([2H])([2H])Oc1cc(O[C@H]2C(C)(C)[C@H](N3Cc4nc(C#C[C@H]5CC[C@H](N6CCN(c7ccc8c(c7)C(=O)N(C7CCC(=O)NC7=O)C8=O)CC6)CC5)ccc4C3=O)C2(C)C)ccc1C#N (stereo partly shown) [Compound 429]
DC50 [3]: < 10 nM
Dmax [4]: > 80%

SMILES: C[C@@H]1CN(C[C@@H]2[C@H]3CN(c4cc5c(cc4F)C(=O)N(C4CCC(=O)NC4=O)C5=O)C[C@@H]23)CCN1c1cnc(C(=O)N[C@H]2CC[C@H](Oc3ccc(C#N)c(Cl)c3)CC2)cn1 (stereo partly drawn) [Compound 264, N-((1r,4R)-4-(3-chloro-4-cyanophenoxy)cyclohexyl)-5-((2R)-4-((1R,5S,6s)-3-(2-(2,6-dioxopiperidin-3-yl)-6-fluoro-1,3-dioxoisoindolin-5-yl)-3-azabicyclo[3.1.0]n-hexane-6-yl)methyl-2-methylpiperazin-1-yl)pyrazine-2-carboxamide]
DC50 [1]: 10 to 100 nM
Dmax [2]: 60 to 80%

Further lines, results first:

DC50 [1]: < 10 nM
Dmax [2]: > 80%
SMILES: CC1(C)[C@H](Oc2ccc(C#N)c(Cl)c2)C(C)(C)[C@H]1N1Cc2nc(C#C[C@H]3CC[C@H](N4CCN(c5ccc6c(c5)C(=O)N(C5CCC(=O)NC5=O)C6=O)CC4)CC3)ccc2C1=O (stereo partly shown) [Compound 325]

DC50 [1]: < 10 nM
Dmax [2]: > 80%
SMILES: N#Cc1ccc(O[C@H]2CC[C@H](NC(=O)c3ccc(N4CCC(CN5CCC6(CC5)CN(c5ccc7c(=O)n(C8CCC(=O)NC8=O)cnc7c5)C6)CC4)nn3)CC2)cc1Cl (stereo partly shown) [Compound 247]

DC50 [1]: < 10 nM
Dmax [2]: > 80%
SMILES: N#Cc1ccc(O[C@H]2CC[C@H](NC(=O)c3cnc(N4CC5(CCN(CC6CCN(c7cc8c(cc7F)C(=O)N(C7CCC(=O)NC7=O)C8=O)CC6)C5)C4)cn3)CC2)cc1Cl (stereo partly shown) [Compound 96]

DC50 [3]: 100 to 300 nM
Dmax [4]: 40 to 60%
SMILES: CC1(C)[C@H](Oc2ccc(C#N)c(Cl)c2)C(C)(C)[C@H]1N1Cc2nc(C#C[C@H]3C[C@H](N4CCN(c5cc(=O)n(C6CCC(=O)NC6=O)cn5)CC4)C3)ccc2C1=O (stereo partly shown) [Compound 395]

DC50 [1]: < 10 nM
Dmax [2]: 60 to 80%
SMILES: C[C@@H]1CN(C[C@@H]2[C@H]3CN(c4cc5c(cc4F)C(=O)N(C4CCC(=O)NC4=O)C5=O)C[C@@H]23)CCN1c1ccc(C(=O)N[C@H]2CC[C@H](Oc3ccc(C#N)c(Cl)c3)CC2)nn1 (stereo partly shown) [Compound 263]

DC50 [3]: 10 to 100 nM
Dmax [4]: > 80%
SMILES: COc1cc(O[C@H]2C(C)(C)[C@H](N3Cc4nc(C#C[C@H]5C[C@H](N6CCN(c7ccc8c(c7)C(=O)N(C7CCC(=O)NC7=O)C8=O)CC6)C5)ccc4C3=O)C2(C)C)ccc1C#N (stereo partly shown) [Compound 392]

DC50 [3]: 10 to 100 nM
Dmax [4]: > 80%
SMILES: CC1(C)[C@H](Oc2ccc(C#N)c(Cl)c2)C(C)(C)[C@H]1N1Cc2nc(C#C[C@H]3C[C@H](N4CCN(c5ccc6c(=O)n(C7CCC(=O)NC7=O)cnc6c5)CC4)C3)ccc2C1=O (stereo partly shown) [Compound 396]

DC50 [1]: 10 to 100 nM
Dmax [2]: > 80%
SMILES: N#Cc1ccc(O[C@H]2CC[C@H](NC(=O)c3ccc(N4CCC(N5CC6(CCN(c7cc8c(cc7F)C(=O)N(C7CCC(=O)NC7=O)C8=O)CC6)C5)CC4)nn3)CC2)cc1C(F)(F)F (stereo partly shown) [Compound 79, N-((1r,4r)-4-(4-cyano-3-(trifluoromethyl)phenoxy)cyclohexyl)-6-(4-(7-(2-(2,6-dioxopiperidin-3-yl)-6-fluoro-1,3-dioxoisoindolin-5-yl)-2,7-diazaspiro[3.5]nonan-2-yl)piperidin-1-yl)pyridazine-3-formamide]
